According to ChEMBL document CHEMBL3232982, “Cytotoxic properties of D-gluco-, D-galacto- and D-manno-configured 2-amino-2-deoxy-glycerolipids against epithelial cancer cell lines and BT-474 breast cancer stem cells” (2014):
The source made the active and inactive calls. The calls are words filed in the database; no cut-off is given here.

Legend:
[1] = Cytotoxicity against human JIMT1 cells assessed as reduction cell viability after 48 hrs by MTS assay; format: functional; conditions: JIMT-1, 48 h
[2] = system: BT-474; assay: Cytotoxicity against human BT474 cells assessed as reduction cell viability after 48 hrs by MTS assay; format: functional; conditions: BT-474, 48 h
[3] = system: BT-474; assay: Cytotoxicity against tumorspheres of human BT474 cells assessed as disintegration of tumorspheres at 5 to 20 uM after 6 days by phase contrast microscopy relative to untreated control; format: functional, cell-based
[4] = system: BT-474; assay: Cytotoxicity against human BT474 cells assessed as inhibition of spheroids formation at 10 to 20 uM after 6 days by phase contrast microscopy relative to untreated control; format: functional, cell-based
[5] = system: PC-3; assay: Cytotoxicity against human PC3 cells assessed as reduction cell viability after 48 hrs by MTS assay; format: functional; conditions: PC-3, 48 h
[6] = system: BT-474; assay: Cytotoxicity against human BT474 cells assessed as inhibition of cell viability at 10 to 20 uM after 6 days by MTS assay relative to untreated control; format: functional, cell-based
[7] = Cytotoxicity against human MIAPaCa2 cells assessed as reduction cell viability after 48 hrs by MTS assay; format: functional; conditions: MIA PaCa-2, 48 h
[8] = system: DU-145; assay: Cytotoxicity against human DU145 cells assessed as reduction cell viability after 48 hrs by MTS assay; format: functional; conditions: DU-145, 48 h
[9] = system: BT-549; assay: Cytotoxicity against human BT549 cells assessed as reduction cell viability after 48 hrs by MTS assay; format: functional; conditions: BT-549, 48 h
[10] = system: BT-474; assay: Cytotoxicity against tumorspheres of human BT474 cells assessed as inhibition of cell viability at 10 to 20 uM after 6 days by MTS assay relative to untreated control; format: functional, cell-based
[11] = system: BT-474; assay: Cytotoxicity against human BT474 cells assessed as formation of spheroids with jagged rough edges at 10 to 20 uM after 6 days by phase contrast microscopy relative to untreated control; format: functional, cell-based
[12] = system: BT-474; assay: Cytotoxicity against tumorspheres of human BT474 cells assessed as cell viability at 30 uM after 6 days by MTS assay relative to untreated control; format: functional; conditions: BT-474, 144 h, read-out: Activity
[13] = system: BT-474; assay: Cytotoxicity against tumorspheres of human BT474 cells assessed as inhibition of cell viability at 20 uM after 6 days by MTS assay relative to untreated control; format: functional; conditions: BT-474, 144 h
[14] = system: BT-474; assay: Cytotoxicity against human BT474 cells assessed as cell viability at 20 uM after 6 days by MTS assay relative to untreated control; format: functional; conditions: BT-474, 144 h, read-out: Activity

In the case of `CCCCCCCCCCCCCCCCOCC(CO[C@H]1O[C@H](CO)[C@@H](O)[C@H](O)[C@H]1N)OC` (some centres undefined), the CC50 [1] is reported as 6 µM, the CC50 [2] is reported as 6.2 µM and the Activity [3] is reported as “Active”. The inhibition [4] was “Active”, the CC50 [5] was 10.5 µM and the inhibition [6] was “Active”. For the same compound, the CC50 [7] was 7 µM, the CC50 [8] was 7 µM and the CC50 [9] was 7 µM. The inhibition [10] was “Active”.
In the case of `CCCCCCCCCCCCCCCCOCC(CO[C@@H]1O[C@H](CO)[C@H](O)[C@H](O)[C@H]1N)OC` (some centres undefined), the CC50 [1] is reported as 24.8 µM, the CC50 [2] is reported as greater than 30 µM and the CC50 [5] is reported as greater than 30 µM. For the same compound, the CC50 [7] was 25.8 µM, the CC50 [8] was 19.5 µM and the CC50 [9] was 27.6 µM.
For `CCCCCCCCCCCCCCCCOCC(CO[C@H]1O[C@H](CO)[C@@H](O)[C@H](O)[C@@H]1N)OC` (some centres undefined), the CC50 [1] was greater than 30 µM, the CC50 [2] was greater than 30 µM and the CC50 [5] was greater than 30 µM. For the same compound, the CC50 [7] was greater than 30 µM, the CC50 [8] was greater than 30 µM and the CC50 [9] was greater than 30 µM.
`CCCCCCCCCCCCCCN` [TETRADECYLAMINE] showed a CC50 [1] of 24.8 µM, a CC50 [2] of 27.1 µM and a CC50 [5] of 24.6 µM. It also gave a CC50 [7] of 18.2 µM, a CC50 [8] of 16.8 µM and a CC50 [9] of 21.7 µM.
In the case of `CCCCCCCCCCCCCCCCOCC(CO[C@H]1O[C@H](CO)[C@H](O)[C@H](O)[C@H]1N)OC` (some centres undefined), the CC50 [1] is reported as 4.5 µM, the CC50 [2] is reported as 6.2 µM and the Activity [3] is reported as “Active”. The inhibition [4] was “Active”, the CC50 [5] was 8 µM and the inhibition [6] was “Active”. The CC50 [7] was 4.4 µM, the CC50 [8] was 4.7 µM and the CC50 [9] was 6.3 µM. For the same compound, the inhibition [10] was “Active”.
With `CCCCCCCCCCCCCCCCOCC(CS[C@H]1O[C@H](CO)[C@H](O)[C@H](O)[C@H]1N)OC` (some centres undefined) the CC50 [1] was 19.1 µM, the CC50 [2] was 24.4 µM and the CC50 [5] was 15 µM. It also gave a CC50 [7] of 18.8 µM, a CC50 [8] of 17.2 µM and a CC50 [9] of 18.3 µM.
In the case of `CCCCCCCCCCCCCCCCOCC(CO[C@@H]1O[C@H](CO)[C@@H](O)[C@H](O)[C@H]1N)OC` (some centres undefined), the CC50 [1] is reported as 9 µM, the CC50 [2] is reported as 8 µM and the Activity [3] is reported as “Active”. For the same compound, the inhibition [4] was “Active”, the CC50 [5] was 13.5 µM and the inhibition [6] was “Active”. The CC50 [7] was 10 µM, the CC50 [8] was 10 µM and the CC50 [9] was 13 µM.
`CCCCCCCCCCCCCCCCOCC(CS[C@@H]1O[C@H](CO)[C@H](O)[C@H](O)[C@H]1N)OC` (some centres undefined) gave a CC50 [1] of 15.5 µM, a CC50 [2] greater than 30 µM and a CC50 [5] of 24.3 µM. It also gave a CC50 [7] of 20.2 µM, a CC50 [8] of 18.8 µM and a CC50 [9] of 22.2 µM.
With `CCCCCCCCCCCCCCCCCCOCC(COP(=O)([O-])OCC[N+](C)(C)C)OC` (centres undefined) [EDELFOSINE] the Activity [3] was “inactive”, the Activity [11] was “Active” and the viability at 30 µM [12] was 45%. For the same compound, the inhibition at 20 µM [13] was 30% and the viability at 20 µM [14] was 55%.
